# Like-named read-outs stand apart in the source and are kept apart here.
# Tests used:
# [1] = Aqueous solubility of alcohols; settings: water
# [2] = Removal of TRITON X-45 from AHF concentrate with alcohols; settings: 0.3% TNBP and 1% TRITON X-45; 10% (w/v) alcohol, 30 minutes, ambient
# AHF [3] = test: AHF retention after extraction of AHF concentrate with alcohols; type: biochemical, human; settings: 0.3% TNBP and 1% TRITON X-45; 10% (w/v) alcohol, 30 minutes, ambient
# [4] = water
# [5] = Removal of TRITON X-45 from AHF concentrate with halogenated hydrocarbons; settings: 1% TRITON X-45; 5% (w/v) halogenated hydrocarbon, 30 minutes, ambient
# Description: (§2) An AHF concentrate prepared from human plasma was treated with 0.3% TNBP and either 1% "TRITON X-45" or 1% "TWEEN 80" to inactivate virus. Following treatment, the solution was extracted one time with 5% (w/v) of a halogenated hydrocarbon by mixing for a period of 30 minutes at ambient temperature. The quantity of residual AHF, TNBP and detergent present in the aqueous solution was measured and compared with the unextracted control.
# [6] = Removal of TNBP from AHF concentrate with halogenated hydrocarbons; settings: 0.3% TNBP; 5% (w/v) halogenated hydrocarbon, 30 minutes, ambient
# Description: as §2
# AHF [7] = test: AHF retention after extraction of AHF concentrate with halogenated hydrocarbons; type: biochemical, human; settings: 5% (w/v) halogenated hydrocarbon, 30 minutes, ambient
# Description: as §2
# [8] = Removal of TWEEN 80 from AHF concentrate with halogenated hydrocarbons; settings: 1% TWEEN 80; 5% (w/v) halogenated hydrocarbon, 30 minutes, ambient
# Description: as §2
# [9] = Extraction of process chemicals from saline: TRITON X114; settings: 1% TRITON X114 in saline
# [10] = Extraction of process chemicals from plasma: TRITON X100; settings: 1% TRITON X100 in plasma
# From the text: (§1) The results are in general agreement with those observed extracting from saline.
# [11] = Extraction of process chemicals from saline: TRITON X100; settings: 1% TRITON X100 in saline
# [12] = Extraction of process chemicals from saline: Nonoxynol; settings: 1% Nonoxynol in saline; 5% extractant
# [13] = Extraction of process chemicals from plasma: TNBP; settings: 2% TNBP in plasma
# From the text: as §1
# [14] = Extraction of process chemicals from saline: TRITON X45; settings: 1% TRITON X45 in saline
# [15] = Extraction of process chemicals from saline: TWEEN 80; settings: 1% TWEEN 80 in saline
# [16] = Extraction of process chemicals from plasma: TRITON X45; settings: 1% TRITON X45 in plasma
# From the text: as §1
# [17] = Extraction of process chemicals from plasma: TWEEN 80; settings: 1% TWEEN 80 in plasma
# From the text: as §1
# [18] = Extraction of process chemicals from plasma: TRITON X114; settings: 1% TRITON X114 in plasma
# From the text: as §1
# [19] = Extraction of process chemicals from saline: TNBP; settings: 1% TNBP in saline
# AHF [20] = test: Recovery of AHF procoagulant activity following extraction; type: biochemical; settings: for AHF recovery: AHF concentrate or plasma; for AHF % Recovery / AHF Activity After: 5% extractant
# [21] = tested on: Vesicular stomatitis virus; test: microbe, parasite or virus in culture; type: cell-based
# AHF [22] = test: Protein functional activity after extraction of plasma: AHF; type: biochemical; settings: 10% extractant, 30 minutes, ambient
# AHF [23] = test: AHF activity retained after depyrogenation extraction; type: biochemical; settings: 10% (v/v) extractant, 30 minutes, 24° C.
# Description: AHF concentrate containing 6.4 ng/ml of endotoxin was extracted by mechanically shaking with 10% (v/v) 2-octanol or "FORANE" for 30 minutes at 24° C. After separation of the extractant by centrifugation, the pyrogen level was determined by the Limulus Amebocyte Lysate assay with a sensitivity of 0.025 ng/ml of endotoxin. The effect of these treatments is shown below in Table XI. […] More than 90% of the original AHF activity was retained following the extraction.
# Factor IX = test: Protein functional activity after extraction of plasma: Factor IX; type: biochemical; settings: 10% extractant, 30 minutes, ambient
# Description: (§3) Plasma was extracted with either 10% "FORANE" or 10% 2-octanol for 30 minutes at ambient temperature.
# Antithrombin III = test: Protein functional activity after extraction of plasma: Antithrombin III; type: biochemical; settings: 10% extractant, 30 minutes, ambient
# Description: as §3
# red blood cells = test: Red blood cell retention on extraction with FORANE; parameters: species or system human; settings: 10% FORANE
# [24] = Merocyanine removal from saline on extraction with FORANE; settings: 10% FORANE
# [25] = Removal of TNBP from cryoprecipitate; settings: extracted two times, 10% FORANE or 10% FORANE and 5% heptanol; lyophilized
# [26] = Removal of TRITON X-45 from cryoprecipitate; settings: extracted two times, 10% FORANE or 10% FORANE and 5% heptanol; lyophilized
# AHF [27] = test: AHF recovery after extraction of cryoprecipitate; type: biochemical; settings: extracted two times, 10% FORANE or 10% FORANE and 5% heptanol; sterile filtered, lyophilized
structure (smiles),measurement,setting,value
CCCCCCCCO [1-octanol],Aqueous Solubility,[1],0.05 g %
same,TRITON X-45 (% Removal),[2],100%
same,AHF (% Retention),AHF [3],96%
CC(C)CCO [isoamyl alcohol],Aqueous Solubility,[1],2.0 g %
same,TRITON X-45 (% Removal),[2],100%
same,AHF (% Retention),AHF [3],1%
CCCCCCCO [heptanol],Aqueous Solubility,[4],0.2 g %
same,TRITON X-45 (% Removal),[2],100%
same,AHF (% Retention),AHF [3],98%
"FC(F)(Cl)C(F)(Cl)Cl [1,2,2-Trifluorotrichloroethane, 1,2,2-trifluorotrichloroethane]",Percent Removal TRITON X-45,[5],8%
same,Percent Removal TNBP,[6],93%
same,% Retention AHF,AHF [7],98%
same,Percent Removal TWEEN 80,[8],3%
CCCCCO [1-pentanol],Percent Extraction,[9]; 5% extractant,91%
same,Percent Extraction,[10]; 5% extractant,65%
same,Percent Extraction,[11]; 5% extractant,92%
same,Percent Extraction,[12],92%
same,Percent Extraction,[13]; 5% extractant,98%
same,Percent Extraction,[14]; 5% extractant,97%
same,Percent Extraction,[15]; 5% extractant,28-42%
same,Percent Extraction,[16]; 5% extractant,80%
same,Percent Extraction,[17]; 5% extractant,7%
same,Percent Extraction,[18]; 5% extractant,75%
same,Percent Extraction,[19]; 5% extractant,99%
same,AHF recovery,AHF [20],approximately 1%
same,AHF % Recovery,AHF [20]; AHF concentrate,1%
same,AHF Activity After,AHF [20]; AHF concentrate,0.02 units/mL
same,AHF % Recovery,AHF [20]; plasma,1%
same,AHF Activity After,AHF [20]; plasma,0.01 units/mL
"FC(F)OC(F)(F)C(F)Cl (stereo not shown) [Ethrane, 2-chloro-1,1,2-trifluoroethyl difluoromethyl ether]",Percent Removal TRITON X-45,[5],99%
same,Percent Removal TNBP,[6],99%
same,% Retention AHF,AHF [7],100%
CCCCCO [amyl alcohol],Aqueous Solubility,[4],2.3 g %
same,TRITON X-45 (% Removal),[2],100%
same,AHF (% Retention),AHF [3],1%
FC(F)(F)C(F)(F)C(F)(F)C(F)(F)C(F)(F)C(F)(F)F [Perfluorohexane],Percent Removal TRITON X-45,[5],0%
same,Percent Removal TNBP,[6],27%
same,% Retention AHF,AHF [7],98%
same,Percent Removal TWEEN 80,[8],0%
CCCCCCCCCO [1-nonanol],TRITON X-45 (% Removal),[2],100%
same,AHF (% Retention),AHF [3],100%
CCCCN1C(=O)C(=CC=CC=C2Oc3ccccc3N2CCCS(=O)(=O)O)C(=O)N(CCCC)C1=S [merocyanine 540],Final Virus Titer,[21],< -0.5
same,"Virus titer, Control (no light)",[21],3.7
same,log reduction at 40 µg/mL,"[21]; Vesicular stomatitis virus, 1 h, read-out: Total Virus Kill",> 4.2
CCCCCCCCCCCO [undecanol],Aqueous Solubility,[1],< 0.05 g %
same,TRITON X-45 (% Removal),[2],100%
same,AHF (% Retention),AHF [3],94%
CCCCCCCCCCO [1-decanol],Aqueous Solubility,[1],< 0.05 g %
same,TRITON X-45 (% Removal),[2],100%
same,AHF (% Retention),AHF [3],100%
CCCCCCC(C)O (stereo not shown) [2-octanol],Percent Extraction,[9]; 5% extractant,94%
same,Percent Extraction,[10]; 5% extractant,19%
same,Percent Extraction,[11]; 5% extractant,60%
same,Percent Extraction,[12],49%
same,Percent Extraction,[13]; 5% extractant,98%
same,Percent Extraction,[14]; 5% extractant,83-96%
same,Aqueous Solubility,[1],0.05 g %
same,TRITON X-45 (% Removal),[2],100%
same,% Retention AHF,AHF [22],95%
same,Percent Extraction,[15]; 5% extractant,0-12%
same,AHF (% Retention),AHF [3],93%
same,Percent Extraction,[16]; 5% extractant,62%
same,original AHF activity retained,AHF [23],More than 90%
same,% Retention Factor IX,Factor IX,99%
same,Percent Extraction,[17]; 5% extractant,21%
same,Percent Extraction,[18]; 5% extractant,33%
same,% Retention Antithrombin III,Antithrombin III,100%
same,Percent Extraction,[19]; 5% extractant,99%
same,AHF recovery,AHF [20],approximately 90%
same,AHF % Recovery,AHF [20]; AHF concentrate,89%
same,AHF Activity After,AHF [20]; AHF concentrate,2.35 units/mL
same,AHF % Recovery,AHF [20]; plasma,91%
same,AHF Activity After,AHF [20]; plasma,1.15 units/mL
FC(F)(F)C(F)(F)C(F)(F)C(F)(F)N(C(F)(F)C(F)(F)C(F)(F)C(F)(F)F)C(F)(F)C(F)(F)C(F)(F)C(F)(F)F [Perfluorotributyl amine],Percent Removal TRITON X-45,[5],0%
same,Percent Removal TNBP,[6],31%
same,% Retention AHF,AHF [7],112%
same,Percent Removal TWEEN 80,[8],3%
CCCCCCO [hexanol],TRITON X-45 (% Removal),[2],100%
same,AHF (% Retention),AHF [3],63%
FC1(F)C(F)(F)C(F)(F)C2(F)C(F)(F)C(F)(F)C(F)(F)C(F)(F)C2(F)C1(F)F (stereo not shown) [Perfluorodecalin],Percent Removal TRITON X-45,[5],0%
same,Percent Removal TNBP,[6],14%
same,% Retention AHF,AHF [7],107%
same,Percent Removal TWEEN 80,[8],0%
"FC(F)OC(Cl)C(F)(F)F (stereo not shown) [FORANE, 1-chloro-2,2,2-trifluoroethyl difluoromethyl ether]",Percent Extraction,[9]; 5% extractant,99%
same,Percent Extraction,[9]; 20% extractant,99%
same,Percent Removal TRITON X-45,[5],99%
same,Red Blood Cell Retention,red blood cells,97%
same,Merocyanine % Removal,[24],83%
same,Percent Extraction,[10]; 5% extractant,95%
same,Percent Extraction,[10]; 20% extractant,96%
same,Percent Removal TNBP,[25],99.88%
same,Percent Removal TRITON X-45,[26],96%
same,Percent Extraction,[11]; 5% extractant,99%
same,Percent Extraction,[11]; 20% extractant,99%
same,Percent Removal TNBP,[6],99%
same,Percent Extraction,[13]; 5% extractant,94%
same,Percent Extraction,[13]; 20% extractant,96%
same,% Retention AHF,AHF [7],100%
same,Percent Extraction,[14]; 5% extractant,99%
same,Percent Extraction,[14]; 20% extractant,99%
same,AHF recovery,AHF [27],95%
same,% Retention AHF,AHF [22],98%
same,Percent Extraction,[15]; 5% extractant,85%
same,Percent Extraction,[15]; 20% extractant,87%
same,Percent Extraction,[16]; 5% extractant,91%
same,Percent Extraction,[16]; 20% extractant,99%
same,original AHF activity retained,AHF [23],More than 90%
same,% Retention Factor IX,Factor IX,99%
same,Percent Extraction,[17]; 20% extractant,66%
same,Percent Extraction,[18]; 5% extractant,96%
same,Percent Extraction,[18]; 20% extractant,96%
same,% Retention Antithrombin III,Antithrombin III,100%
same,Percent Removal TWEEN 80,[8],87%
same,Percent Extraction,[19]; 5% extractant,99%
same,Percent Extraction,[19]; 20% extractant,99%
same,AHF recovery,AHF [20],~100%
same,AHF % Recovery,AHF [20]; AHF concentrate,102%
same,AHF Activity After,AHF [20]; AHF concentrate,2.69 units/mL
